Biological target: T1, P2X2 (His-rP2x2-StrepII) (Rattus norvegicus, UniProt P49653)
T1 construct: gene P2rx2; His tag and StrepII tag; homotrimer
T1 sequence (P49653 1-472): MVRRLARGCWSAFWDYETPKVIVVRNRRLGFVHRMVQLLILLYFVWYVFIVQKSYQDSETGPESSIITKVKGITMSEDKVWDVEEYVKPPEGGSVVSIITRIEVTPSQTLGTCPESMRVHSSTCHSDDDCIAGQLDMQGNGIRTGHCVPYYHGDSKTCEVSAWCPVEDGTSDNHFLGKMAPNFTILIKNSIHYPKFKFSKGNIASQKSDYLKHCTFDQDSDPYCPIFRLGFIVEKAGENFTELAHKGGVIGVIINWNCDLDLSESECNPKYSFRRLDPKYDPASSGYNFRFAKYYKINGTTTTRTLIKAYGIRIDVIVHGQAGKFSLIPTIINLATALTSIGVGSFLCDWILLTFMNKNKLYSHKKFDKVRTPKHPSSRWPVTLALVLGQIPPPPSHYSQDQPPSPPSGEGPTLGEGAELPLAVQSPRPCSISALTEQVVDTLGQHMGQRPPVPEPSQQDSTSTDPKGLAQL
Assay: whole-cell patch clamp, HEK293, multi-step microfluidic application
Format: cell-based

EC50: 1500 ± 20 nM
SMILES: Nc1ncnc2c1ncn2[C@@H]1O[C@H](COP(=O)(O)OP(=O)(O)OP(=O)(O)O)[C@@H](O)[C@H]1O [ATP]
